From patent US9611248B2, “Chemical compounds” (Syngenta Participations AG, priority 2013, dated 2017)

Test system: a variety of test species
Test: Post-emergence herbicidal activity
Format: in vivo
Design: key to ABUTH (Abutilon theophrasti) damage score / AMARE (Amaranthus retroflexus) damage score / ALOMY (Alopecurus myosuroides) damage score / ECHCG (Echinochloa crus-galli) damage score / ZEAMX (Zea mays) damage score / SOLNI (Solanum nigrum) damage score: 0 = no damage to plant, 5 = total damage to plant
Details: evaluated after 13 days
In short: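 Damage on a 0–5 scale (5 = plant killed) was rated 13 days after treatment. Test species had been sown in standard soil and raised 8 days under glasshouse conditions of 24/16 °C, 14 h light, 65% humidity. They were then sprayed with aqueous solution from an acetone/water 50:50 formulation containing 0.5% Tween 20.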

Structure (SMILES) | ABUTH (Abutilon theophrasti) damage score (rate 1000 g/ha) | ALOMY (Alopecurus myosuroides) damage score (rate 1000 g/ha) | AMARE (Amaranthus retroflexus) damage score (rate 1000 g/ha) | ECHCG (Echinochloa crus-galli) damage score (rate 1000 g/ha) | SETFA (Setaria faberi) damage score (rate 1000 g/ha) | ZEAMX (Zea mays) damage score (rate 1000 g/ha) | ABUTH (Abutilon theophrasti) damage score (rate 250 g/ha) | ALOMY (Alopecurus myosuroides) damage score (rate 250 g/ha) | AMARE (Amaranthus retroflexus) damage score (rate 250 g/ha) | ECHCG (Echinochloa crus-galli) damage score (rate 250 g/ha) | SETFA (Setaria faberi) damage score (rate 250 g/ha) | ZEAMX (Zea mays) damage score (rate 250 g/ha)
COC1=C(C)C(=O)N(c2cc(C(F)(F)F)c(OCCCF)cn2)C1O (stereo not drawn) [AD79] | 5 | 5 | 5 | 5 | 5 | 2 | – | – | – | – | – | –
COC1=C(C)C(=O)N(c2cc(C(F)(F)F)c(OCCOC(C)(C)C)cn2)C1O (stereo not drawn) [AD80] | 4 | 3 | 5 | 4 | 5 | 1 | – | – | – | – | – | –
COC1=C(C)C(=O)N(c2cc(C(F)(F)F)c(OCCOCc3ccccc3)cn2)C1O (stereo not drawn) [AD81] | – | – | – | – | – | – | 5 | 2 | 5 | 2 | 3 | 1
COC1=C(C)C(=O)N(c2cc(C(F)(F)F)c(OCc3ccccc3)cn2)C1O (stereo not drawn) [AD82] | 4 | 2 | 5 | 3 | 5 | 1 | – | – | – | – | – | –
COCCCOc1cnc(N2C(=O)C(C)=C(OC)C2O)cc1C(F)(F)F (stereo not drawn) [AD83] | 5 | 4 | 5 | 5 | 5 | 1 | – | – | – | – | – | –
COC1=C(C)C(=O)N(c2cc(C(F)(F)F)c(OCCCc3ccccc3)cn2)C1O (stereo not drawn) [AD84] | 2 | 1 | 5 | 2 | 4 | 1 | – | – | – | – | – | –
COC1=C(C)C(=O)N(c2cc(C(F)(F)F)c(OCCc3ccccc3)cn2)C1O (stereo not drawn) [AD85] | – | – | – | – | – | – | 5 | 2 | 5 | 2 | 4 | 1
COC1=C(C)C(=O)N(c2cc(C(F)(F)F)c(OCc3ccco3)cn2)C1O (stereo not drawn) [AD86] | – | – | – | – | – | – | 4 | 2 | 5 | 1 | 3 | 0
COC1=C(C)C(=O)N(c2cc(C(F)(F)F)c(OCCc3ccsc3)cn2)C1O (stereo not drawn) [AD87] | – | – | – | – | – | – | 4 | 3 | 5 | 2 | 3 | 1
COC1=C(C)C(=O)N(c2cc(C(F)(F)F)c(Oc3ccccc3)cn2)C1O (stereo not drawn) [AD88] | 5 | 3 | 5 | 4 | 5 | 1 | – | – | – | – | – | –
COC1=C(C)C(=O)N(c2cc(C(C)C)c(C(=O)NC(C)(C)C)cn2)C1O (stereo not drawn) [AD89] | 5 | 5 | 5 | 5 | 5 | 3 | – | – | – | – | – | –
COC1=C(C)C(=O)N(c2cc(C)c(NC(=O)C(C)(C)C)cn2)C1O (stereo not drawn) [AD90] | 5 | 5 | 5 | 5 | 5 | 2 | – | – | – | – | – | –
COC1=C(C)C(=O)N(c2cc(C)c(S(=O)(=O)N3CCOCC3)cn2)C1O (stereo not drawn) [AD91] | 0 | 0 | 2 | 0 | 0 | 2 | – | – | – | – | – | –
CCN(CC)C(=O)c1cnc(N2C(=O)C(C)=C(OC)C2O)cc1C(F)(F)F (stereo not drawn) [AD92] | 5 | 4 | 4 | 5 | 4 | 3 | – | – | – | – | – | –
COC1=C(C)C(=O)N(c2cc(C(F)(F)F)c(SCc3ccccc3)cn2)C1O (stereo not drawn) [AD93] | 3 | 2 | 4 | 3 | 4 | 0 | – | – | – | – | – | –
COC1=C(C)C(=O)N(c2cc(C)c(S(=O)(=O)NC(C)(C)C)cn2)C1O (stereo not drawn) [AD94] | 1 | 1 | 0 | 1 | 1 | 0 | – | – | – | – | – | –
COC1=C(C)C(=O)N(c2cc(C)c(S(=O)(=O)NC(C)C)cn2)C1O (stereo not drawn) [AD95] | 5 | 4 | 5 | 4 | 5 | 0 | – | – | – | – | – | –
CCCCNS(=O)(=O)c1cnc(N2C(=O)C(C)=C(OC)C2O)cc1C (stereo not drawn) [AD96] | 3 | 4 | 5 | 4 | 5 | 0 | – | – | – | – | – | –
COC1=C(C)C(=O)N(c2cc(C)c(S(=O)(=O)N3CCCCC3)cn2)C1O (stereo not drawn) [AD97] | 0 | 0 | 0 | 0 | 0 | 0 | – | – | – | – | – | –
COC1=C(C)C(=O)N(c2cc(C(F)(F)F)c(C(=O)NCc3ccccc3)cn2)C1O (stereo not drawn) [AD98] | 5 | 4 | 5 | 4 | 4 | 1 | – | – | – | – | – | –
CCc1cc(N2C(=O)C(C)=C(OC)C2O)ncc1-c1cccc(C#N)c1 (stereo not drawn) [AD99] | 5 | 1 | 5 | 5 | 4 | 1 | – | – | – | – | – | –
CCc1cc(N2C(=O)C(C)=C(OC)C2O)ncc1-c1ccccc1OC (stereo not drawn) [AD100] | 4 | 0 | 5 | 0 | 4 | 1 | – | – | – | – | – | –
CCc1cc(N2C(=O)C(C)=C(OC)C2O)ncc1-c1ccoc1 (stereo not drawn) [AD102] | 4 | 3 | 5 | 3 | 4 | 1 | – | – | – | – | – | –
CCc1cc(N2C(=O)C(C)=C(OC)C2O)ncc1-c1ccc(C)c([N+](=O)[O-])c1 (stereo not drawn) [AD103] | 4 | 3 | 5 | 4 | 4 | 1 | – | – | – | – | – | –
CCc1cc(N2C(=O)C(C)=C(OC)C2O)ncc1-c1ccccc1[N+](=O)[O-] (stereo not drawn) [AD104] | 5 | 2 | 5 | 2 | 4 | 0 | – | – | – | – | – | –
CCc1cc(N2C(=O)C(C)=C(OC)C2O)ncc1-c1ccccc1F (stereo not drawn) [AD105] | 5 | 2 | 5 | 3 | 4 | 1 | – | – | – | – | – | –
CCc1cc(N2C(=O)C(C)=C(OC)C2O)ncc1-c1ccc(F)cc1F (stereo not drawn) [AD106] | 5 | 2 | 5 | 4 | 4 | 0 | – | – | – | – | – | –
CCc1cc(N2C(=O)C(C)=C(OC)C2O)ncc1-c1ccccc1C (stereo not drawn) [AD107] | 5 | 2 | 5 | 2 | 3 | 1 | – | – | – | – | – | –
CCc1cc(N2C(=O)C(C)=C(OC)C2O)ncc1-c1cccc(F)c1 (stereo not drawn) [AD108] | 5 | 3 | 5 | 3 | 5 | 0 | – | – | – | – | – | –
COC1=C(C)C(=O)N(c2cc(C)c(-c3cccc(C#N)c3)cn2)C1O (stereo not drawn) [AD109] | 5 | 3 | 5 | 5 | 5 | 1 | – | – | – | – | – | –
